PMC7249037, “Phenylpyrazalopyrimidines as Tyrosine Kinase Inhibitors: Synthesis, Antiproliferative Activity, and Molecular Simulations” (Molecules, 2020)
Several values for one entry are separate records, joined by “and”; a condition that tells them apart may be missing. Identical values can stand only once.

How the values were obtained:
[1] = system: CCRF-CEM cells; test: Cell proliferation assay (CellTiter 96); format: cell-based, human; settings: for reducing the cell proliferation (in words): 24–96 h
Protocol: (§1) Human leukemia cell line CCRF-CEM (ATCC no. CCL-119), human ovarian adenocarcinoma cell line SK-OV-3 (ATCC no. HTB-77), human breast carcinoma cell line MDA-MB-231 (ATCC no.HTB-26), and human colon adenocarcinoma cell line HT-29 (ATCC no. HTB-38) were obtained from American Type Culture Collection. Cells were grown on 75 cm^2 cell culture flasks with […] (for leukemia cells) and EMEM (Eagle’s minimum essential medium) (for SK-OV-3, HT-29, MDA-MB-231 cells), supplemented with 10% fetal bovine serum (FBS), and 1% penicillin-streptomycin solution (10,000 units of penicillin and 10 mg of streptomycin in 0.9% NaCl) in a humidified atmosphere of 5% CO2, 95% air at 37 °C.
(§2) The cell proliferation assay was carried out using a CellTiter 96 aqueous one-solution cell proliferation assay kit (Promega, Madison, WI, USA). Briefly, upon reaching about 75–80% confluence, 5000 cells/well were plated in 96-well microplate in 100 μL of the medium. After seeding for 24 h, the cells were treated with 50 µM compound in triplicate. Doxorubicin (10 µM) was used as a positive control. […] The plate was returned to the incubator for 1 h in a humidified atmosphere at 37 °C. The absorbance of the formazan product was measured at 490 nm using a microplate reader. The blank control was recorded by measuring the absorbance at 490 nm with wells containing medium mixed with CellTiter 96 aqueous solution but no cells. The percentage of cell survival was calculated as the OD value of cells treated with test compound − OD value of culture medium/(OD value of control cells − OD value of culture medium) × 100%. The same strategy was used for generating a dose-response graph for compound 10.

[2] = system: MDA-MB-231 cells; test: Cell proliferation assay (CellTiter 96); format: cell-based, human; settings: for reducing the cell proliferation (in words): 24–96 h
Protocol: as §1, §2

[3] = system: HT-29 cells; test: Cell proliferation assay (CellTiter 96); format: cell-based, human; settings: for reducing the cell proliferation (in words): 24–96 h
Protocol: as §1
(§3) The cell proliferation assay was carried out using a CellTiter 96 aqueous one-solution cell proliferation assay kit (Promega, Madison, WI, USA). Briefly, upon reaching about 75–80% confluence, 5000 cells/well were plated in 96-well microplate in 100 μL of the medium. After seeding for 24 h, the cells were treated with 50 µM compound in triplicate. Doxorubicin (10 µM) was used as a positive control. At the end of the sample exposure period (72 h), 20 µL of CellTiter 96 aqueous solution was added. The plate was returned to the incubator for 1 h in a humidified atmosphere at 37 °C. The absorbance of the formazan product was measured at 490 nm using a microplate reader. The blank control was recorded by measuring the absorbance at 490 nm with wells containing medium mixed with CellTiter 96 aqueous solution but no cells. The percentage of cell survival was calculated as the OD value of cells treated with test compound − OD value of culture medium/(OD value of control cells − OD value of culture medium) × 100%. The same strategy was used for generating a dose-response graph for compound 10.

[4] = system: SK-OV-3 cells; test: Cell proliferation assay (CellTiter 96); format: cell-based, human; settings: for reducing the cell proliferation (in words): 24–96 h; for IC50: SK-OV-3 cells, 72 h incubation
Protocol: as §1, §3

[5] = biological target: T1, c-Src (Homo sapiens, UniProt P12931); test: c-Src kinase activity assay (Transcreener ADP fluorescence intensity); format: biochemical; set-up: 0.7 nM of His6-Src kinase domain in kinase buffer; His6; settings: in vitro Src kinase inhibition, His6-Src kinase domain, triplicate
Protocol: In summary, the kinase reaction was started in the 384-well low volume black microplate with the incubation of 2.5 μL of the reaction cocktail (0.7 nM of His6-Src kinase domain in kinase buffer) with 2.5 μL of prediluted compounds (dissolved in 10% DMSO, 4× target concentration) for 10 min at room temperature using microplate shaker. The reaction cocktail was made using the kinase buffer HEPES (200 mM, pH 7.5), MgCl2 (16 mM), EGTA (8 mM), DMSO (4%), Brij-35 (0.04%), and 2-mercaptoethanol (43 mM). The kinase reaction was started by adding 5 μL of ATP/substrate (40 μM/600 μM) cocktail and incubated for 30 min at room temperature on a microplate shaker. Src optimal peptide ([…]) was used as the substrate for the kinase reaction. The kinase reaction was stopped by adding 10 μL of the 1× ADP Detection Mixture to the enzyme reaction mixture and mixed using a plate shaker. The mixture was incubated at room temperature for 1 h, and the fluorescence intensity was measured. The 1× ADP Detection Mixture was prepared by adding ADP^2 Antibody-IRDyeR QC-1 (10 μg/mL) and ADP Alexa594 Tracer (8 nM) to Stop and Detect Buffer B(1×). The fluorescence Intensity measurements were performed using a fluorescence intensity optical module using the excitation of 580 nm and emission of 630 nm with bandwidths of 10 nm by Optima, BMG Labtech microplate reader (BMG Labtech, Ortenberg, Germany). The IC50 values of the compounds were calculated using ORIGIN 6.0 (Origin Lab, Microcal Software, Inc. Northhampton, MA, USA) software. […] All the experiments were carried out in triplicate.
Target sequence in this assay (P12931 270-523 limits assumed): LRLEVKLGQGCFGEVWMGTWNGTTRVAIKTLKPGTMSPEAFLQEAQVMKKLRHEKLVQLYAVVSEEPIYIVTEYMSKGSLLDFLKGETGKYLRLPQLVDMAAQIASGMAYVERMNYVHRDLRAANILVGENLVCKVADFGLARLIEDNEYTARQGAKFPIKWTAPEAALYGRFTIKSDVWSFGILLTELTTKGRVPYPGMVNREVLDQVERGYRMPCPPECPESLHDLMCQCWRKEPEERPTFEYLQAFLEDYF

[6] = biological target: T2, Btk (Homo sapiens, UniProt Q06187); test: Kinase panel, radiometric filter-binding (Reaction Biology); format: biochemical; settings: 200 µM ATP, values above 1 µM estimated from curve fit
T2 construct: purchased Invitrogen (assay run by Reaction Biology Corporation) PV3363

[7] = biological target: T3, Lck (Homo sapiens, UniProt P06239); test: as above; format: biochemical; settings: 200 µM ATP, values above 1 µM estimated from curve fit
T3 construct: purchased Invitrogen (assay run by Reaction Biology Corporation) P3043

[8] = biological target: T1, c-Src; test: as above; format: biochemical; set-up: purchased Invitrogen (assay run by Reaction Biology Corporation) P3044; settings: 200 µM ATP, values above 1 µM estimated from curve fit
Target sequence in this assay (P12931 whole entry, the tested form may be a part): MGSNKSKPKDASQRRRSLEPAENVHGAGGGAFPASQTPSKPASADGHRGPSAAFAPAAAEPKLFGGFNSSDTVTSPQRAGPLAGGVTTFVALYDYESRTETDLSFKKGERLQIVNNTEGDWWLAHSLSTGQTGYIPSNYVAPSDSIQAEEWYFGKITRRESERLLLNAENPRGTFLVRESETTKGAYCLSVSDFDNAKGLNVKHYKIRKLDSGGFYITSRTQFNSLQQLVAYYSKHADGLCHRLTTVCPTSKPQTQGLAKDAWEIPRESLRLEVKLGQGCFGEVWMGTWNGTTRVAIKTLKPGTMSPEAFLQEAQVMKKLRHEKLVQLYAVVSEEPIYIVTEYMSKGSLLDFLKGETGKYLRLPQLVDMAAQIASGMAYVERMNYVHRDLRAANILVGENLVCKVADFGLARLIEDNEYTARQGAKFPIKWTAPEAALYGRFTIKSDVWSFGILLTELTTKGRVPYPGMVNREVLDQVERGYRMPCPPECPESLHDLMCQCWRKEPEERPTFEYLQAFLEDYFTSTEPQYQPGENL

[9] = biological target: T4, Akt1 (Homo sapiens, UniProt P31749); test: as above; format: biochemical; settings: 200 µM ATP, NA = not active, values above 1 µM estimated from curve fit
T4 construct: purchased Invitrogen (assay run by Reaction Biology Corporation) PR3878D
Protocol: Required cofactors were added individually to each kinase reaction. […] The serial dilution was conducted by Integra Viaflo Assist in DMSO.

T2 sequence (Q06187 whole entry): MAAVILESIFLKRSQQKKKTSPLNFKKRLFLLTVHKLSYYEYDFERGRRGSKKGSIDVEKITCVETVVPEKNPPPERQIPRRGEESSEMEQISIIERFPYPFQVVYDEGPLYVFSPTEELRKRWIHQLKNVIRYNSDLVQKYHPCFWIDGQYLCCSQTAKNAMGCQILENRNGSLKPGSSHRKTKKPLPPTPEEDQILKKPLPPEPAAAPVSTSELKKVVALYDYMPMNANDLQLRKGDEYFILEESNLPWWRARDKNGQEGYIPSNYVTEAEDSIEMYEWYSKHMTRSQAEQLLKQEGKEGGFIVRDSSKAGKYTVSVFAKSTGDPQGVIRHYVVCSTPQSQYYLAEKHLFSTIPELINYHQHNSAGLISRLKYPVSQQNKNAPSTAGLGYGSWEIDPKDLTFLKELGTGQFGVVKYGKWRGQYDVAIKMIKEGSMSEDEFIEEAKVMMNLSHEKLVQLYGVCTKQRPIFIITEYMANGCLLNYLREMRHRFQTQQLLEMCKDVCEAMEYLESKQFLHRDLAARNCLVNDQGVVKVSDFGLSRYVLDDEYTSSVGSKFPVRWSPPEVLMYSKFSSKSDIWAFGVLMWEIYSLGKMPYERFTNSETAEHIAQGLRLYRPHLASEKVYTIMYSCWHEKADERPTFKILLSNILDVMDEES
T4 sequence (P31749 whole entry): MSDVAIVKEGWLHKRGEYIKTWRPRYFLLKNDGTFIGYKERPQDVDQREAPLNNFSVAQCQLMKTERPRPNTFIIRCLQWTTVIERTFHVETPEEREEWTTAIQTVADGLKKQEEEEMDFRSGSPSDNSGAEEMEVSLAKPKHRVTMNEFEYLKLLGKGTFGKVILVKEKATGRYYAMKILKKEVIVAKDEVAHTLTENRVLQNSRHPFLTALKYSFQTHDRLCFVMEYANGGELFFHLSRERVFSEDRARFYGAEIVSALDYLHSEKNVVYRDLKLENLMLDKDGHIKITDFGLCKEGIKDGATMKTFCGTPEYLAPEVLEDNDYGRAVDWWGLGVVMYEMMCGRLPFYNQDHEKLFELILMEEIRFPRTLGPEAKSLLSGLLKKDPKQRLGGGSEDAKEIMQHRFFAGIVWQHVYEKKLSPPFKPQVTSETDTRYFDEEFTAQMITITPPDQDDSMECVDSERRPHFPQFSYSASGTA
T3 sequence (P06239 whole entry): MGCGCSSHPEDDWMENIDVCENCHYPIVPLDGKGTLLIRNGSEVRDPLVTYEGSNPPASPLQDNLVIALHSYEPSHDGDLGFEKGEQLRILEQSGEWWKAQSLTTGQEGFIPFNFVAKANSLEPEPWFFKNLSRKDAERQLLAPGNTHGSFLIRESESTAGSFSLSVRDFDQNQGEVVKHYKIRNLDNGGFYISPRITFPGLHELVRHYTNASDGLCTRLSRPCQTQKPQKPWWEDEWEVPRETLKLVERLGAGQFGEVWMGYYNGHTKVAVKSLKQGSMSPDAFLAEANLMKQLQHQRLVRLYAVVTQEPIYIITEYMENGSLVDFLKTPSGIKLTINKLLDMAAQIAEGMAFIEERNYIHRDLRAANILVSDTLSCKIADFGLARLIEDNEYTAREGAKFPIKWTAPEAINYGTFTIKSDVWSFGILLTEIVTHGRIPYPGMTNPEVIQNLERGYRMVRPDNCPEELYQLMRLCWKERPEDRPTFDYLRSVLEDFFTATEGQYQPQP

| SMILES | reducing the cell proliferation (in words) ([1]; 50 µM) | reducing the cell proliferation (in words) ([2]; MDA-MB-231, 50 µM) | reducing the cell proliferation (in words) ([3]; HT-29, 50 µM) | reducing the cell proliferation (in words) ([4]; SK-OV-3, 50 µM) | IC50 [5] [µM] | also measured |
| --- | --- | --- | --- | --- | --- | --- |
| CC(=O)C(=Cc1ccccc1Cl)n1nc(-c2ccccc2)c2c(N)ncnc21 [Compound 12, 3-(4-Amino-3-phenyl-1H-pyrazolo[3,4-d]pyrimidin-1-yl)-4-(2-chlorophenyl)but-3-en-2-one] | inactive | inactive | inactive | inactive | – | – |
| CC(=O)C(=Cc1cccc(C)c1)n1nc(-c2ccccc2)c2c(N)ncnc21 [Compound 4, 3-(4-Amino-3-phenyl-1H-pyrazolo[3,4-d]pyrimidin-1-yl)-4-m-tolylbut-3-en-2-one] | – | – | – | – | 24.7 | – |
| COc1cccc2c1C(=O)c1c(O)c3c(c(O)c1C2=O)C[C@@](O)(C(=O)CO)C[C@@H]3O[C@H]1C[C@H](N)[C@H](O)[C@H](C)O1 [Dox, Doxorubicin, reference compound] | – | – | – | – | – | inhibition at 1 µM ([1]; Homo sapiens, Dox positive control (1 µM in Figure 3, 10 µM in method), 96 h): 73%; inhibition at 1 µM ([2]; Homo sapiens, MDA-MB-231, Dox positive control (1 µM in Figure 3, 10 µM in method), 96 h): 64%; inhibition at 1 µM ([3]; Homo sapiens, HT-29, Dox positive control (1 µM in Figure 3, 10 µM in method), 96 h): 75%; inhibition at 1 µM ([4]; Homo sapiens, SK-OV-3, Dox positive control (1 µM in Figure 3, 10 µM in method), 96 h): 73% |
| CC(=O)C(=Cc1cccc([N+](=O)[O-])c1)n1nc(-c2ccccc2)c2c(N)ncnc21 [Compound 9, 3-(4-Amino-3-phenyl-1H-pyrazolo[3,4-d]pyrimidin-1-yl)-4-(3-nitrophenyl)but-3-en-2-one] | inactive | inactive | inactive | inactive | – | – |
| COc1ccc(C=C(C(C)=O)n2nc(-c3ccccc3)c3c(N)ncnc32)cc1 [Compound 6, 3-(4-Amino-3-phenyl-1H-pyrazolo[3,4-d]pyrimidin-1-yl)-4-(4-methoxyphenyl)but-3-en-2-one] | – | – | – | – | 21.7 | – |
| CC(=O)Cn1nc(-c2ccccc2)c2c(N)ncnc21 [Compound 2, 1-(4-Amino-3-phenyl-1H-pyrazolo[3,4-d]pyrimidin-1-yl)propan-2-one] | inactive | inactive | inactive | inactive | – | – |
| CC(=O)/C(=C\c1ccc(-c2ccccc2)cc1)n1nc(-c2ccccc2)c2c(N)ncnc21 [Compound 5, 3-(4-Amino-3-phenyl-1H-pyrazolo[3,4-d]pyrimidin-1-yl)-4-p-biphenylbut-3-en-2-one] | – | – | – | – | 192 | – |
| CC(=O)C(=Cc1ccc(C)cc1)n1nc(-c2ccccc2)c2c(N)ncnc21 [Compound 3, 3-(4-Amino-3-phenyl-1H-pyrazolo[3,4-d]pyrimidin-1-yl)-4-p-tolylbut-3-en-2-one] | – | – | – | – | 32.9 | – |
| CC(=O)C(=Cc1ccc(N(C)C)cc1)n1nc(-c2ccccc2)c2c(N)ncnc21 [Compound 7, 3-(4-Amino-3-phenyl-1H-pyrazolo[3,4-d]pyrimidin-1-yl)-4-(4-(dimethylamino)phenyl)but-3-en-2-one] | inactive | inactive | inactive | inactive | 36.9 | – |
| CC(=O)C(=Cc1ccc(Cl)cc1Cl)n1nc(-c2ccccc2)c2c(N)ncnc21 [Compound 11, 3-(4-Amino-3-phenyl-1H-pyrazolo[3,4-d]pyrimidin-1-yl)-4-(2,4-dichlorophenyl)but-3-en-2-one] | – | – | – | – | – | IC50 ([4]; Homo sapiens): 34.3 µM |
| CC(=O)C(=Cc1ccc(Cl)cc1)n1nc(-c2ccccc2)c2c(N)ncnc21 [Compound 10, 3-(4-Amino-3-phenyl-1H-pyrazolo[3,4-d]pyrimidin-1-yl)-4-(4-chlorophenyl)but-3-en-2-one] | – | – | – | – | – | IC50 [6]: 90.5 µM and 95.4 µM; inhibition at 50 µM ([1]; Homo sapiens, 50 µM, 96 h): 79%; inhibition at 50 µM ([2]; Homo sapiens, MDA-MB-231, 50 µM, 96 h): 60%; inhibition at 50 µM ([3]; Homo sapiens, HT-29, 50 µM, 96 h): 90%; inhibition at 50 µM ([4]; Homo sapiens, SK-OV-3, 50 µM, 96 h): 79%; IC50 ([4]; Homo sapiens): 25.5 µM; IC50 [7]: 110 µM; IC50 [8]: 60.4 µM and 64.1 µM; IC50 [9]: > 150 µM |
